Among the data in US12564638B2 (SHANGHAITECH UNIVERSITY, priority 2019, dated 2026) are IC50 values, retold here.

Common to all, as to type: cell-based
In test [1] the test system is BT474 cells (HER2 positive breast cancer cells). In words: Cell viability assay (CCK8), BT474 cells. The conditions noted are these: Homo sapiens, BT-474, Table 10, BT474, 72 hours, read-out: IC50 (half inhibitory concentration). In short, it runs like this: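 HER2-overexpressing BT474 cells in RPMI1640 were exposed to compounds for 72 hours over 10 concentrations (3-fold dilution, top 10 μM). Viability was measured with CCK8 reagent against a DMSO control, and IC50 was taken from growth inhibition curves.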

The subject of test [2] is PC9BracA1 (EGFR Exon 19 del+T790M, non-small cell lung cancer cells). In words: Cell viability assay (WST/CCK8), PC9Brac1 cells. As to conditions: read-out: IC50 (half inhibitory concentration). The source says:
(§1) The cell lines with abnormal EGFR expression used are as follows: • HCC827 cells (EGFR Exon19 del, non-small cell lung cancer cells); • PC9 cells (EGFR Exon 19 del, non-small cell lung cancer cells); • PC9BracA1 (EGFR Exon 19 del+T790M, non-small cell lung cancer cells) • H1975 (EGFR Exon T790M+L858R mutation, non-small cell lung cancer cell line) • BT474 cells (HER2 positive breast cancer cells)
(§2) All of the half inhibitory concentrations (IC50) of these compounds of the present invention were determined with WST reagent from Fuyuan Biotec Company. The specific experiment procedures are as follows: Cancer cells were planted in 96-well-plate at the density of 3 000 cells per well with 100 μL RPMI1640 completed culture medium. In the next day, compounds with indicated concentrations were added to the cells, DMSO was used as the negative control and the EGFR TKIs were used to treat cells as the positive groups. After 72 hours drug treatment, cell viability was measured by using the WST reagent following the instructions.

Test [3] deals with PC9 cells (EGFR Exon 19 del, non-small cell lung cancer cells). The test is described as follows: Cell viability assay (WST/CCK8), PC9 cells. As to conditions: Homo sapiens, PC-9, 72 hours, read-out: IC50 (half inhibitory concentration). The method, boiled down: (§3)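 Cells seeded at 3 000/well in RPMI1640 complete medium, dosed next day with compounds (top 10 μM, 3-fold, 10 points) for 72 h. Viability read with WST (CCK8) reagent; DMSO as negative control, EGFR TKIs as positive controls; IC50 determined.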

Test [4] relates to HCC827 cells (EGFR Exon19 del, non-small cell lung cancer cells). The test is described as follows: Cell viability assay (WST/CCK8), HCC827 cells. The conditions noted are these: Homo sapiens, HCC827, 72 h, 72 hours, read-out: IC50 (half inhibitory concentration). The method, boiled down: as §3
The subject of test [5] is H1975 (EGFR T790M+L858R mutation, non-small cell lung cancer cell line). The test is described as follows: Cell viability assay (WST/CCK8), H1975 cells. As to conditions: Homo sapiens, NCI-H1975, read-out: IC50 (half inhibitory concentration).
Excerpt: as §1, §2

[6] abbreviates: PC9Brac1 (Ex19del + T790M), 72 hours, WST.
The mark [7] stands for this setting: HCC827 (Exon19 Del), WST (CCK8).
The mark [8] stands for this setting: H1975 (L858R + T790M), 72 hours, WST.
Setting [9] is: Table 7, canertinib-based compounds, PC9Brca1 (Ex19del + T790M).
Where [10] appears, read: Table 6, canertinib-based compounds, PC9 (Exon19 Del), WST.
The mark [11] stands for this setting: Table 6, canertinib-based compounds, HCC827 (Exon19 Del), WST.
The mark [12] stands for this setting: Table 7, canertinib-based compounds, H1975 (L858R + T790M).
Where [13] appears, read: Table 8, osimertinib-based compounds, Pc9Brc1, 72 hours, WST.
Setting [14] is: Table 8, osimertinib-based compounds, PC9, WST.
[15] abbreviates: Table 8, osimertinib-based compounds, HCC827, WST.
Setting [16] is: Table 8, osimertinib-based compounds, H1975, 72 hours, WST.

SMILES strings stand for the structures. Read-outs that look alike come from different tables or passages of the source.

Turning to `COc1cc2ncnc(Nc3ccc(F)c(Cl)c3)c2cc1NC(=O)/C=C/CN1CCC(NC(=O)CCCCCCNc2cccc3c2C(=O)N(C2CCC(=O)NC2=O)C3=O)CC1` (centres unmarked) [SIAIS249085, (E)-N-(1-(4-((4-((3-chloro-4-fluorophenyl)amino)-7-methoxyquinazolin-6-yl)amino)-4-oxobut-2-en-1-yl)piperidin-4-yl)-7-((2-(2,6-dioxopiperidin-3-yl)-1,3-dioxoisoindolin-4-yl)amino)heptanamide], the IC50 in test [1] turned out to be 0.0393 µM; in test [2] (setting [6]) it was 0.481 µM; in test [3] (PC9 (Exon19 Del), WST (CCK8)), 0.0079 µM; in test [4] (setting [7]), 0.003 µM; in test [5] (setting [8]), 0.952 µM.
The matching figures for `COc1cc2ncnc(Nc3ccc(F)c(Cl)c3)c2cc1NC(=O)/C=C/CN1CCC(N2CCN(C(=O)CNc3cccc4c3C(=O)N(C3CCC(=O)NC3=O)C4=O)CC2)CC1` (centres unmarked) [SIAIS262036, (E)-N-(4-((3-chloro-4-fluorophenyl)amino)-7-methoxyquinazolin-6-yl)-4-(4-(4-(2-((2-(2,6-dioxopiperidin-3-yl)-1,3-dioxoisoindolin-4-yl)amino)acetyl)piperazin-1-yl)piperidin-1-yl)but-2-enamide]: 0.0003 µM, 0.26 µM, 0.0067 µM, 0.0024 µM and 0.511 µM.
For `COc1cc2ncnc(Nc3ccc(F)c(Cl)c3)c2cc1NC(=O)/C=C/CN1CCC(NC(=O)CCCCCCSc2cccc3c2CN(C2CCC(=O)NC2=O)C3=O)CC1` (centres unmarked) [SIAIS262115, (E)-N-(1-(4-((4-((3-chloro-4-fluorophenyl)amino)-7-methoxyquinazolin-6-yl)amino)-4-oxobut-2-en-1-yl)piperidin-4-yl)-7-((2-(2,6-dioxopiperidin-3-yl)-1-oxoisoindolin-4-yl)thio)heptanamide], the IC50 is 0.0337 µM in test [1]; 0.488 µM in test [2] (setting [6]); 0.0072 µM in test [3] (PC9 (Exon19 Del), WST (CCK8)); 0.004 µM in test [4] (setting [7]); 0.55 µM in test [5] (setting [8]).
In the case of `COc1cc2ncnc(Nc3ccc(F)c(Cl)c3)c2cc1NC(=O)/C=C/CN1CCC(NC(=O)CCCCCCCCCCSc2cccc3c2CN(C2CCC(=O)NC2=O)C3=O)CC1` (centres unmarked) [SIAIS262118, (E)-N-(1-(4-((4-((3-chloro-4-fluorophenyl)amino)-7-methoxyquinazolin-6-yl)amino)-4-oxobut-2-en-1-yl)piperidin-4-yl)-11-((2-(2,6-dioxopiperidin-3-yl)-1-oxoisoindolin-4-yl)thio)undecanamide], the IC50 in test [1] amounted to 0.0632 µM; in test [2] (setting [6]), 0.205 µM; in test [3] (PC9 (Exon19 Del), WST (CCK8)), 0.0038 µM; in test [4] (setting [7]), 0.003 µM; in test [5] (setting [8]) it was 0.299 µM.
Turning to `C=CC(=O)Nc1cc2c(Nc3ccc(F)c(Cl)c3)ncnc2cc1OCCCN1CCN(C(=O)CCCCSc2cccc3c2CN(C2CCC(=O)NC2=O)C3=O)CC1` (centres unmarked) [SIAIS262122, N-(4-((3-chloro-4-fluorophenyl)amino)-7-(3-(4-(5-((2-(2,6-dioxopiperidin-3-yl)-1-oxoisoindolin-4-yl)thio)pentanoyl)piperazin-1-yl)propoxy)quinazolin-6-yl)acrylamide], the IC50 in test [1] was determined as 0.048 µM; in test [2] (setting [9]), 0.474 µM; in test [3] (setting [10]), 0.0231 µM; in test [4] (setting [11]), 0.0041 µM; in test [5] (setting [12]), 0.097 µM.
As for `C=CC(=O)Nc1cc2c(Nc3ccc(F)c(Cl)c3)ncnc2cc1OCCCN1CCN(C(=O)CCCCCSc2cccc3c2CN(C2CCC(=O)NC2=O)C3=O)CC1` (centres unmarked) [SIAIS262123, N-(4-((3-chloro-4-fluorophenyl)amino)-7-(3-(4-(6-((2-(2,6-dioxopiperidin-3-yl)-1-oxoisoindolin-4-yl)thio)hexanoyl)piperazin-1-yl)propoxy)quinazolin-6-yl)acrylamide], the IC50 in test [1] amounted to 0.0489 µM; in test [2] (setting [9]), 0.38 µM; in test [3] (setting [10]) it was 0.0083 µM; in test [4] (setting [11]), 0.002 µM; in test [5] (setting [12]), 0.143 µM.
`C=CC(=O)Nc1cc2c(Nc3ccc(F)c(Cl)c3)ncnc2cc1OCCCN1CCC(N2CCN(CCCCCCNc3cccc4c3C(=O)N(C3CCC(=O)NC3=O)C4=O)CC2)CC1` (centres unmarked) [SIAIS262183, N-(4-((3-chloro-4-fluorophenyl)amino)-7-(3-(4-(4-(6-((2-(2,6-dioxopiperidin-3-yl)-1,3-dioxoisoindolin-4-yl)amino)hexyl)piperazin-1-yl)piperidin-1-yl)propoxy)quinazolin-6-yl)acrylamide]: the IC50 is 0.0119 µM in test [1], 1.06 µM in test [2] (setting [9]) and 0.25 µM in test [5] (setting [12]).
Take `C=CC(=O)Nc1cc(Nc2nccc(-c3cn(C)c4ccccc34)n2)c(OC)cc1N(C)CCN(C)CCCCCCCCCSc1cccc2c1CN(C1CCC(=O)NC1=O)C2=O` (centres unmarked) [SIAIS337085, N-(2-((2-((9-((2-(2,6-dioxopiperidin-3-yl)-1-oxoisoindolin-4-yl)thio)nonyl)(methyl)amino)ethyl)(methyl)amino)-4-methoxy-5-((4-(1-methyl-1H-indol-3-yl)pyrimidin-2-yl)amino)phenyl)acrylamide]: the IC50 was 0.239 µM in test [2] (setting [13]), 0.143 µM in test [3] (setting [14]), 0.006 µM in test [4] (setting [15]) and 0.462 µM in test [5] (setting [16]).
With `C=CC(=O)Nc1cc(Nc2nccc(-c3cn(C)c4ccccc34)n2)c(OC)cc1N(C)CCN(C)CCCCCCCCCCSc1cccc2c1CN(C1CCC(=O)NC1=O)C2=O` (centres unmarked) [SIAIS337086, N-(2-((2-((10-((2-(2,6-dioxopiperidin-3-yl)-1-oxoisoindolin-4-yl)thio)decyl)(methyl)amino)ethyl)(methyl)amino)-4-methoxy-5-((4-(1-methyl-1H-indol-3-yl)pyrimidin-2-yl)amino)phenyl)acrylamide], the IC50 in test [2] (setting [13]) was found to be 0.194 µM; in test [3] (setting [14]) it was 0.064 µM; in test [4] (setting [15]) it was 0.003 µM; in test [5] (setting [16]), 0.203 µM.
As for `C=CC(=O)Nc1cc(Nc2nccc(-c3cn(C)c4ccccc34)n2)c(OC)cc1N(C)CCN(C)CCCCCCCCCCCSc1cccc2c1CN(C1CCC(=O)NC1=O)C2=O` (centres unmarked) [SIAIS337087, N-(2-((2-((11-((2-(2,6-dioxopiperidin-3-yl)-1-oxoisoindolin-4-yl)thio)undecyl)(methyl)amino)ethyl)(methyl)amino)-4-methoxy-5-((4-(1-methyl-1H-indol-3-yl)pyrimidin-2-yl)amino)phenyl)acrylamide], the IC50 in test [2] (setting [13]) turned out to be 0.598 µM; in test [3] (setting [14]), 0.32 µM; in test [4] (setting [15]), 0.091 µM; in test [5] (setting [16]), 0.242 µM.
On to `C=CC(=O)Nc1cc(Nc2nccc(-c3cn(C)c4ccccc34)n2)c(OC)cc1N(C)CCN(C)Cc1ccc(CSc2cccc3c2CN(C2CCC(=O)NC2=O)C3=O)cc1` (centres unmarked) [SIAIS337088, N-(2-((2-((4-(((2-(2,6-dioxopiperidin-3-yl)-1-oxoisoindolin-4-yl)thio)methyl)benzyl)(methyl)amino)ethyl)(methyl)amino)-4-methoxy-5-((4-(1-methyl-1H-indol-3-yl)pyrimidin-2-yl)amino)phenyl)acrylamide], for which the IC50 in test [2] (setting [13]) stood at 0.662 µM; in test [3] (setting [14]), 0.302 µM; in test [4] (setting [15]), 0.005 µM; in test [5] (setting [16]), 0.239 µM.
Turning to `C=CC(=O)Nc1cc(Nc2nccc(-c3cn(C)c4ccccc34)n2)c(OC)cc1N(C)CCN(C)CCCC#Cc1cccc2c1CN(C1CCC(=O)NC1=O)C2=O` (centres unmarked) [SIAIS337089, N-(2-((2-((5-(2-(2,6-dioxopiperidin-3-yl)-1-oxoisoindolin-4-yl)pent-4-yn-1-yl)(methyl)amino)ethyl)(methyl)amino)-4-methoxy-5-((4-(1-methyl-1H-indol-3-yl)pyrimidin-2-yl)amino)phenyl)acrylamide], the IC50 in test [2] (setting [13]) stood at 0.107 µM; in test [3] (setting [14]), 0.082 µM; in test [4] (setting [15]), 0.015 µM; in test [5] (setting [16]) it was 0.016 µM.
